Data: patent US20150182546A1, “THERAPEUTIC AGENT FOR ENHANCING MITOCHONDRIAL FUNCTION” (Mitochondrial Concepts LLC, priority 2013, published 2015)

How the values were obtained:
Assay type in all cases: in vivo, human
[1] = system: pseudohypertrophic muscular dystrophy patients; assay: Treatment of pseudohypertrophic muscular dystrophy patients with 4SAS
ALS patient = assay: Treatment of an ALS patient with oral 4SAS; conditions: ALS patient previously unable to speak; oral dosage
patient of advanced age = assay: Treatment of a patient of advanced age with oral 4SAS; conditions: patient in early 70s; oral dosage
[2] = Oral administration of adenylosuccinate in clinical trials
Description: The administration of the adenylosuccinate may be accomplished via several approaches. It is possible to administer adenylosuccinate by means of a sub-cutaneous pump. […] Alternatively, adenylosuccinate might be suitably packaged for timed release or trans-dermal application.

Compound	Improved? ([1]; Patient A, severity 1, therapy 81-89, 1 mg-10 mg, 10-20 mg, 100 mg, 200 mg)	Improved? ([1]; Patient C, severity 3, therapy 81-84, 1 mg-10 mg, 10-20 mg)	Improved? ([1]; Patient D, severity 4, therapy 81-84, 1 mg-10 mg, 10-20 mg)	Improved? ([1]; Patient E, severity 5, therapy 81-84, 1 mg-10 mg, 10-20 mg)	Improved? ([1]; Patient F, therapy 88-89, 70 mg)	Improved? ([1]; Patient G, therapy 87-89, 150 mg, 333 mg)	Improved? ([1]; Patient H, therapy 88-89, 200 mg, 300 mg)	Improved? ([1]; Patient I, therapy 86-89, 10 mg, 25 mg, 100 mg)	Improved? ([1]; Patient J, therapy 86-89, 1200 mg)	Improved? ([1]; Patient K, therapy 87-89, 200 mg, 300 mg)	Improved? ([1]; Patient L, therapy 87-89, dosage small)	Improved? ([1]; Patient N, therapy 89-89, 300 mg)	strength and related functionality ([1]; thirteen young PMD patients at various stages, intraperitoneal, subcutaneous and oral dosages)	capacity to speak (ALS patient)	energy (patient of advanced age)	healing (patient of advanced age)	posture (patient of advanced age)	efficacy of oral administration [2]
O=C([O-])C[C@H](Nc1ncnc2c1ncn2[C@@H]1O[C@H](COP(=O)([O-])[O-])[C@@H](O)[C@H]1O)C(=O)[O-].[Na+].[Na+].[Na+].[Na+] [4SAS, tetrasodium adenylosuccinate]	Yes	Yes	Yes	Yes	Yes	Yes	Yes	Yes	Yes	Yes	Yes	Yes	increased strength and related functionality	temporarily regained capacity to speak intelligibly	increased energy	accelerated healing	improved posture	–
O=C(O)CC(Nc1ncnc2c1ncn2[C@@H]1O[C@H](COP(=O)(O)O)[C@@H](O)[C@H]1O)C(=O)O (stereo partly drawn) [adenylosuccinate]	–	–	–	–	–	–	–	–	–	–	–	–	–	–	–	–	–	proven efficacious
